Literature values as cited in paper PMC7587396, “New Zileuton-Hydroxycinnamic Acid Hybrids: Synthesis and Structure-Activity Relationship towards 5-Lipoxygenase Inhibition” (Molecules, 2020).

Target: T1, 5-LO (Homo sapiens, UniProt P09917)
T1 sequence (P09917 1-674): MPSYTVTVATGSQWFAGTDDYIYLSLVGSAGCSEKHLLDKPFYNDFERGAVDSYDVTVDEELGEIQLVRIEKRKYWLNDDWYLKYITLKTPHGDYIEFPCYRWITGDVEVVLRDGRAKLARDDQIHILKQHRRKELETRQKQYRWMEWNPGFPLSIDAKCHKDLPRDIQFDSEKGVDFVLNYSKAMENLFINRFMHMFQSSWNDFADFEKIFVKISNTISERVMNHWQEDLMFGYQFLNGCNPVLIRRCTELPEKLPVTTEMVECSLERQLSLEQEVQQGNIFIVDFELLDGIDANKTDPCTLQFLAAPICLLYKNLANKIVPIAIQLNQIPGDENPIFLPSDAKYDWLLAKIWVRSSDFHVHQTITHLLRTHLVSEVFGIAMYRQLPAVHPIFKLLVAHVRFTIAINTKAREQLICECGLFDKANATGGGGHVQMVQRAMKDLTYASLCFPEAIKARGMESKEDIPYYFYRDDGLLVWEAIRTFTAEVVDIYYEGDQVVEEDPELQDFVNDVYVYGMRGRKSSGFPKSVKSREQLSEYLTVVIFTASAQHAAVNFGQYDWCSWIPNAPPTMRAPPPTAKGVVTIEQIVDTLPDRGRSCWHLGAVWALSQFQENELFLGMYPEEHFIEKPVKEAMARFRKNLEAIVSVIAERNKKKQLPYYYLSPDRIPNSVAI
Parameters: 5-LO is highly expressed in PMNL; endogenous in cells; host or cells: human PMNL from peripheral blood of healthy volunteers
Settings: read-out: IC50, inhibition of LTs biosynthesis in human PMNL; cited from earlier work

O=C(/C=C/c1ccc(O)c(O)c1)OCCc1ccccc1 [CAPE, caffeic acid phenethyl ester]
IC50: 520 nM
